Assay results from US20250361239A1, “PROTEIN DEGRADERS AND USES THEREOF” (ZHUHAI YUFAN BIOTECHNOLOGIES CO., LTD., priority 2022, published 2025).

Key:
HL60 cells = assay: HL60 cell killing experiment (CellTiter-Glo cell viability); type: cell-based; conditions: Homo sapiens, HL-60, 48 h incubation, CTG luminescence
Protocol: HL60 cell lines were purchased from ATCC (Cat #ATCC® CCL-240™), IMDM media were purchased from ATCC (Cat #ATCC® 30-2005™), FBS was purchased from Gibco (Cat #10091148), celltiter-glo luminescent cell viability assay was purchased from promega (Cat #G7572), and 96-well plates were purchased from corning (Cat #3610).
The effect of compounds on the growth of HL60 cells was determined by measuring cell viability. Firstly, cells in the logarithmic growth phase were collected and centrifuged, and the culture supernatant was discarded. The centrifuged cells were resuspended in a fresh complete medium, and the cell density was adjusted to 5×10^4 cells/mL. The resuspended cells were inoculated into two opaque 96-well cell culture plates at 100 μL of cell suspension per well, and the cell culture plates were incubated in a cell incubator at 37° C. for 4 h. After 4 h, dilutions (20 μL) of compounds with different concentrations were added. After one of the cell plates was cooled to room temperature, 60 μL of CTG reagent was added, and the luminescence values were read on the instrument as G0. The other one was incubated in a cell incubator for 48 h. After 48 h, 60 μL of CTG reagent was added, and the luminescence values were read on the instrument as G3.
According to the corresponding proliferation rate and concentration of each gradient concentration well, a gradient curve of cell proliferation was fitted using XLFit software, and the GI50 values of compounds were calculated.

GSPT1 = biological target: T1, GSPT1 (Homo sapiens, UniProt P15170+Q96SW2); assay: Degradation of GSPT1 by the compounds (HiBiT signal in GSPT1/HEK293 hibit cells); type: cell-based; conditions: 6 h incubation, Nano Glo HiBiT Lytic Detection
T1 construct: host or cells: HEK293
Protocol: GSPT1/HEK293 hibit cell lines were constructed by Shanghai BioDuro Co., Ltd., HEK293 cell lines were purchased from ATCC (Cat #ATCC® CRL-1573™), DMEM media were purchased from ATCC (Cat #ATCC® 30-2002™), FBS was purchased from Gibco (Cat #10091148), Nano Glo HiBiT Lytic Detection System was purchased from Promega (Cat #N3040), and 96-well plates were purchased from coming (Cat #3610).
The degradation of GSPT1 by the compounds was determined by measuring the intensity of hibit signals in cells. Firstly, the cells were digested with pancreatin, and the digestion was then terminated with medium. The cells were centrifuged, and the supernatant was discarded. The centrifuged cells were resuspended in a fresh complete medium, and the cell density was adjusted to 2.5×10^4 cells/mL. The resuspended cells were inoculated into an opaque 96-well cell culture plate at 100 μL of cell suspension per well, and the cell culture plate was incubated in a cell incubator at 37° C. overnight. The next day, dilutions (20 μL) of compounds with different concentrations were added, and the plate was incubated in a cell incubator for 6 h. After 6 h, 60 μL of Nano Glo HiBiT Lytic Detection System reagent was added and the luminescence values were read on the instrument.
According to the corresponding degradation rate and concentration of each gradient concentration well, a gradient curve of degradation rate was fitted using XLFit software, and the DC50 values of compounds were calculated.

T1 sequence (P15170 whole entry): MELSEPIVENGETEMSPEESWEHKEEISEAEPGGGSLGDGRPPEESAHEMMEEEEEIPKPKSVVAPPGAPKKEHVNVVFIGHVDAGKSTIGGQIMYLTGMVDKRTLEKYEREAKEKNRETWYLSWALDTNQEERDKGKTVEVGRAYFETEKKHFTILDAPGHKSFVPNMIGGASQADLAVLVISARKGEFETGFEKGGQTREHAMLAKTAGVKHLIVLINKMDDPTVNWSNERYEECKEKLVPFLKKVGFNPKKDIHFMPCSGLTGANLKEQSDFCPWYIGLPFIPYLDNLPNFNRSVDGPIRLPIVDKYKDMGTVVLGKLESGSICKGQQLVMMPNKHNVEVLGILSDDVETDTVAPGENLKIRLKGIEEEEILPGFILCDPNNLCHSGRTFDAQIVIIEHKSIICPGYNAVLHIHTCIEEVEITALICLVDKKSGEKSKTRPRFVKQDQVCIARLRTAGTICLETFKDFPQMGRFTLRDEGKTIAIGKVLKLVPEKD
T1 sequence (Q96SW2 whole entry): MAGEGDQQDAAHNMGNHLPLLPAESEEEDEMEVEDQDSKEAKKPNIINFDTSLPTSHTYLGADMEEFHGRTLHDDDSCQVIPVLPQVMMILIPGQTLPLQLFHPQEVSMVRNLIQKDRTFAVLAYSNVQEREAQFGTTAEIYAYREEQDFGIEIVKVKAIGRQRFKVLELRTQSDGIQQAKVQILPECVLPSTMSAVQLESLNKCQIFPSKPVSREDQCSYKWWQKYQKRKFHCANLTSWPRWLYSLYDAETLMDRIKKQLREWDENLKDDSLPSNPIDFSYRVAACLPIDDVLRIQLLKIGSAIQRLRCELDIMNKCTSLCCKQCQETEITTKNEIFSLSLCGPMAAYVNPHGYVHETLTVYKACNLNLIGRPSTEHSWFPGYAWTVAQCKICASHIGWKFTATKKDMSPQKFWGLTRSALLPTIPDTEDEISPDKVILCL
T1 sequence (Q16531 whole entry partner): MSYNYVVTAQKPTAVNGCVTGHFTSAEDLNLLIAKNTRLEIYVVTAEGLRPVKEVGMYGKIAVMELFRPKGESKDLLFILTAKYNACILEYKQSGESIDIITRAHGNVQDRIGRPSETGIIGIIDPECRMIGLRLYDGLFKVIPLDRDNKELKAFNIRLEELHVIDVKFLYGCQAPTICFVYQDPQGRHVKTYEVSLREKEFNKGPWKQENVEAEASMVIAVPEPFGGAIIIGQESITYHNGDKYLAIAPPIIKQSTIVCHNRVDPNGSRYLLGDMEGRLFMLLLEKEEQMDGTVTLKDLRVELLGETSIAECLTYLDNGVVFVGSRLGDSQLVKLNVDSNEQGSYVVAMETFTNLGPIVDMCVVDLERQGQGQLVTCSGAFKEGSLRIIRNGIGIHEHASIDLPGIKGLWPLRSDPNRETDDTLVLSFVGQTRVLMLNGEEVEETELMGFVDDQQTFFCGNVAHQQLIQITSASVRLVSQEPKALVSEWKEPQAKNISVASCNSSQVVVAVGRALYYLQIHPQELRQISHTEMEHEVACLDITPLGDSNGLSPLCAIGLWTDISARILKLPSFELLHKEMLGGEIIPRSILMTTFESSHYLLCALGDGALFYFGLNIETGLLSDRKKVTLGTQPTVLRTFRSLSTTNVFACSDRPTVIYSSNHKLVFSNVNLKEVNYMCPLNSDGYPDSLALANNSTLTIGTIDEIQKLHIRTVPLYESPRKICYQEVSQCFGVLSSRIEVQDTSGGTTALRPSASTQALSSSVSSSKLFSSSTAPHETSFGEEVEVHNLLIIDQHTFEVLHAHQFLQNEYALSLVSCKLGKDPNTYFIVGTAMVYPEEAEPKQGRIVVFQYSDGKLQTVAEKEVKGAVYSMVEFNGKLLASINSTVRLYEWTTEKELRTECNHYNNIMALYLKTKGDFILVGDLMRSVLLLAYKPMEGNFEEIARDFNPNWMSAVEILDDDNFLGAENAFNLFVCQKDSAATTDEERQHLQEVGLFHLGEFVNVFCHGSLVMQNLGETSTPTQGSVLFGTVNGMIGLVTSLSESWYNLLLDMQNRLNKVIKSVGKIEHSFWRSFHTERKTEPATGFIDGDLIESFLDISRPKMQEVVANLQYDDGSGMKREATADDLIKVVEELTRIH

DC50 (GSPT1) [µM]	Structure (SMILES)	GI50 (HL60 cells) [µM]
< 0.1	Cn1c2cnccc2nc1[C@H]1CC[C@H](NC(=O)c2cccc(CNc3cccc4c3C(=O)N(C3CCC(=O)NC3=O)C4=O)c2)CC1 (stereo partly shown) [Example 34]	< 0.1
< 0.1	Cn1c(C2CCC(NC(=O)c3cc(CNc4cccc5c4C(=O)N(C4CCC(=O)NC4=O)C5=O)ccn3)CC2)nc2ccccc21 (stereo not shown) [Example 35]	< 0.1
< 0.1	Cn1c2ccncc2nc1[C@H]1CC[C@H](C(=O)Nc2cccc(CNc3cccc4c3C(=O)N(C3CCC(=O)NC3=O)C4=O)c2)CC1 (stereo partly shown) [Example 36]	< 0.1
< 0.1	Cn1c2cnccc2nc1[C@H]1CC[C@H](C(=O)Nc2cccc(CNc3cccc4c3C(=O)N(C3CCC(=O)NC3=O)C4=O)c2)CC1 (stereo partly shown) [Example 37]	< 0.1
< 0.1	O=C1CCC(N2C(=O)c3cccc(NCc4ccc5cn([C@H]6CC[C@H](c7nc8cccnc8s7)CC6)nc5c4)c3C2=O)C(=O)N1 (stereo partly shown) [Example 38]	< 0.1
< 0.1	Cn1c2cccnc2nc1[C@H]1CC[C@H](NC(=O)c2cc(CNc3cccc4c3C(=O)N(C3CCC(=O)NC3=O)C4=O)ccn2)CC1 (stereo partly shown) [Example 42]	< 0.1
< 0.1	Cn1c2ncccc2nc1[C@H]1CC[C@H](NC(=O)c2cc(CNc3cccc4c3C(=O)N(C3CCC(=O)NC3=O)C4=O)ccn2)CC1 (stereo partly shown) [Example 43]	< 0.1
< 0.1	O=C1CCC(N2C(=O)c3cccc(NCc4cccc(C(=O)NC5CCC(c6cc7ccccc7s6)CC5)c4)c3C2=O)C(=O)N1 (stereo not shown) [Example 44]	< 0.1
< 0.1	Cn1c(C2CCC(NC(=O)c3cc(COc4cccc5c4C(=O)N(C4CCC(=O)NC4=O)C5=O)ccn3)CC2)nc2ccncc21 (stereo not shown) [Example 48]	< 0.1
< 0.1	O=C1CCC(N2C(=O)c3cccc(NCc4cccc(C(=O)NC5CCC(c6nc7ccccc7s6)CC5)c4)c3C2=O)C(=O)N1 (stereo not shown) [Example 49]	< 0.1
< 0.1	O=C1CCC(N2C(=O)c3cccc(NCc4cccc(C(=O)NC5CCC(c6cc7ccncc7s6)CC5)c4)c3C2=O)C(=O)N1 (stereo not shown) [Example 50]	< 0.1
< 0.1	O=C1CCC(N2C(=O)c3cccc(NCc4cccc(C(=O)NC5CCC(c6cc7cnccc7s6)CC5)c4)c3C2=O)C(=O)N1 (stereo not shown) [Example 51]	< 0.1
< 0.1	O=C1CCC(N2C(=O)c3cccc(NCc4cccc(C(=O)NC5CCC(c6csc7ccncc67)CC5)c4)c3C2=O)C(=O)N1 (stereo not shown) [Example 56]	< 0.1
< 0.1	O=C1CCC(N2C(=O)c3cccc(NCc4cccc(C(=O)NC5CCC(c6nc7cccnc7s6)CC5)c4)c3C2=O)C(=O)N1 (stereo not shown) [Example 57]	< 0.1
< 0.1	O=C1CCC(N2C(=O)c3cccc(NCc4cccc(NC(=O)[C@H]5CC[C@H](c6nc7cccnc7s6)CC5)c4)c3C2=O)C(=O)N1 (stereo partly shown) [Example 59]	< 0.1
< 0.1	O=C1CCC(N2C(=O)c3cccc(NCc4cccc(C(=O)NC5CCC(c6csc7cncnc67)CC5)c4)c3C2=O)C(=O)N1 (stereo not shown) [Example 60]	< 0.1
< 0.1	O=C1CCC(N2C(=O)c3cccc(NCc4cccc(NC(=O)[C@H]5CC[C@H](c6nc7cccnc7s6)CC5)n4)c3C2=O)C(=O)N1 (stereo partly shown) [Example 62]	< 0.1
< 0.1	O=C1CCC(N2C(=O)c3cccc(NCc4cccc(C(=O)NC5CCC(c6cc7sccc7s6)CC5)c4)c3C2=O)C(=O)N1 (stereo not shown) [Example 66]	< 0.1
< 0.1	Cn1c(C2CC3(CC(NC(=O)c4cccc(CNc5cccc6c5C(=O)N(C5CCC(=O)NC5=O)C6=O)c4)C3)C2)nc2ccncc21 (stereo not shown) [Example 69]	< 0.1

DC50 (GSPT1) [µM]	Structure (SMILES)	GI50 (HL60 cells) [µM]
< 0.1	CCn1c(C2CCC(NC(=O)c3cccc(CNc4cccc5c4C(=O)N(C4CCC(=O)NC4=O)C5=O)c3)CC2)nc2ccncc21 (stereo not shown) [Example 71]	< 0.1
< 0.1	Cn1c(C2CCC(NC(=O)c3cc(CNc4cccc5c4C(=O)N(C4CCC(=O)NC4=O)C5=O)ccc3F)CC2)nc2ccncc21 (stereo not shown) [Example 77]	< 0.1
< 0.1	CN(C(=O)c1cc(CNc2cccc3c2C(=O)N(C2CCC(=O)NC2=O)C3=O)ccn1)[C@H]1CC[C@H](c2nc3cccnc3s2)CC1 (stereo partly shown) [Example 79]	< 0.1
< 0.1	O=C1CCC(N2C(=O)c3cccc(NCc4ccc(F)c(C(=O)N[C@H]5CC[C@H](c6nc7cccnc7s6)CC5)c4)c3C2=O)C(=O)N1 (stereo partly shown) [Example 80]	< 0.1
< 0.1	O=C1CCC(N2C(=O)c3cccc(NCc4cccc(C(=O)NC5CCC(c6nc7cccnc7n6C6CC6)CC5)c4)c3C2=O)C(=O)N1 (stereo not shown) [Example 82]	< 0.1
< 0.1	CCCn1c(C2CCC(NC(=O)c3cccc(CNc4cccc5c4C(=O)N(C4CCC(=O)NC4=O)C5=O)c3)CC2)nc2cccnc21 (stereo not shown) [Example 84]	< 0.1
< 0.1	COc1ccc2c(c1)nc(C1CCC(NC(=O)c3cccc(CNc4cccc5c4C(=O)N(C4CCC(=O)NC4=O)C5=O)c3)CC1)n2C (stereo not shown) [Example 85]	< 0.1
< 0.1	CNc1ccc2c(c1)nc(C1CCC(NC(=O)c3cccc(CNc4cccc5c4C(=O)N(C4CCC(=O)NC4=O)C5=O)c3)CC1)n2C (stereo not shown) [Example 86]	< 0.1
< 0.1	COc1ccc(CNc2cccc3c2C(=O)N(C2CCC(=O)NC2=O)C3=O)cc1C(=O)N[C@H]1CC[C@H](c2nc3ncccc3s2)CC1 (stereo partly shown) [Example 95]	< 0.1
< 0.1	COc1cnc2sc([C@H]3CC[C@H](C(=O)Nc4cccc(CNc5cccc6c5C(=O)N(C5CCC(=O)NC5=O)C6=O)c4)CC3)nc2c1 (stereo partly shown) [Example 98]	< 0.1
< 0.1	COc1ccc(CNc2cccc3c2C(=O)N(C2CCC(=O)NC2=O)C3=O)cc1C(=O)N[C@H]1CC[C@H](c2nc3ccncc3s2)CC1 (stereo partly shown) [Example 99]	< 0.1
< 0.1	Cn1c(C2CCC(NC(=O)c3cccc(CNc4cccc5c4C(=O)N(C4CCC(=O)NC4=O)C5=O)c3)CC2)nc2c3cc[nH]c3ncc21 (stereo not shown) [Example 100]	< 0.1
< 0.1	O=C1CCC(N2C(=O)c3cccc(NCc4cccc(C(=O)NC5CCC(c6nc7ccncc7n6C6COC6)CC5)c4)c3C2=O)C(=O)N1 (stereo not shown) [Example 101]	< 0.1
< 0.1	O=C1CCC(N2C(=O)c3cccc(NCCCCC(=O)NC4CCC(c5nc6c(cnc7[nH]cc(C8CCOCC8)c76)[nH]5)CC4)c3C2=O)C(=O)N1 (stereo not shown) [Example 109]	< 0.1
< 0.1	Cn1c(C2CCC(NC(=O)CCCCNc3cccc4c3C(=O)N(C3CCC(=O)NC3=O)C4=O)CC2)nc2c3c(C4CCCCC4)c[nH]c3ncc21 (stereo not shown) [Example 110]	< 0.1
< 0.1	Cn1cc(C2CCOCC2)c2c3nc(C4CCC(NC(=O)CCCCNc5cccc6c5C(=O)N(C5CCC(=O)NC5=O)C6=O)CC4)[nH]c3cnc21 (stereo not shown) [Example 112]	< 0.1
< 0.1	O=C1CCC(N2C(=O)c3cccc(NCc4cccc(C(=O)NC5CCC(c6nc7c(cnc8[nH]cc(C9CCOCC9)c87)[nH]6)CC5)c4)c3C2=O)C(=O)N1 (stereo not shown) [Example 115]	< 0.1
< 0.1	O=C1CCC(N2C(=O)c3cccc(NCc4ccc(C(=O)NC5CCC(c6nc7c(cnc8[nH]cc(C9CCOCC9)c87)[nH]6)CC5)cc4)c3C2=O)C(=O)N1 (stereo not shown) [Example 116]	< 0.1
< 0.1	Cn1c2cc(N)ccc2nc1[C@H]1CC[C@H](NC(=O)c2cc(CNc3cccc4c3C(=O)N(C3CCC(=O)NC3=O)C4=O)ccn2)CC1 (stereo partly shown) [Example 130]	< 0.1
